Where “and” joins values, the source holds several entries; their conditions need not be identical. Equal entries are not always repeated. Structures can show the parent of a compound that is named as a salt.
How the values were obtained:
[1] = system: LPS-induced CINC-3 release, NR8383 cells; experiment: LPS-induced CINC-3 (CXCL2) release in NR8383 rat alveolar macrophages (ELISA); format: cell-based; conditions: Macrophage, 8-hour brilacidin and LPS exposure, read-out: IC50, inhibition of LPS-induced CINC-3 release
Experimental: To examine the effect of brilacidin on production in cells of cytokine-induced neutrophil chemoattractant-3 (CINC-3; CXCL2), rat alveolar macrophage (NR8383) cells were pretreated with a range of brilacidin concentrations for 45 minutes, followed by treatment with 1 μg/ml LPS from E. coli (Sigma, St. Louis, MO) for 8 hours in the presence of brilacidin. After 8 hours, supernatants were collected for CINC-3 measurement by ELISA. CINC-3 was measured using an immunoassay kit according to manufacturer's instructions (R&D Systems, Minneapolis, MN).
PDE4 and PDE3 inhibition results in subsequent down-regulation of pro-inflammatory cytokines/chemokines and its regulators, and experiments were conducted to confirm such down-regulation by brilacidin in ex vivo cell-based assays. In these assays, cells were exposed to brilacidin 45 minutes before an 8-hour lipopolysaccharide (LPS) stimulation in the presence of brilacidin; cytokine/enzyme concentrations were determined by ELISA using a standard immunoassay kit.

human PDE4B2 = human PDE4B2 (Homo sapiens, UniProt Q07343); experiment: PDE-Glo phosphodiesterase assay, PDE4; format: biochemical; conditions: 8 ng PDE4B, 1 μM cAMP substrate, 15 min pre-incubation; read-out: IC50, inhibition of PDE4
Sequence of human PDE4B2 (Q07343 1-564 isoform Q07343-2): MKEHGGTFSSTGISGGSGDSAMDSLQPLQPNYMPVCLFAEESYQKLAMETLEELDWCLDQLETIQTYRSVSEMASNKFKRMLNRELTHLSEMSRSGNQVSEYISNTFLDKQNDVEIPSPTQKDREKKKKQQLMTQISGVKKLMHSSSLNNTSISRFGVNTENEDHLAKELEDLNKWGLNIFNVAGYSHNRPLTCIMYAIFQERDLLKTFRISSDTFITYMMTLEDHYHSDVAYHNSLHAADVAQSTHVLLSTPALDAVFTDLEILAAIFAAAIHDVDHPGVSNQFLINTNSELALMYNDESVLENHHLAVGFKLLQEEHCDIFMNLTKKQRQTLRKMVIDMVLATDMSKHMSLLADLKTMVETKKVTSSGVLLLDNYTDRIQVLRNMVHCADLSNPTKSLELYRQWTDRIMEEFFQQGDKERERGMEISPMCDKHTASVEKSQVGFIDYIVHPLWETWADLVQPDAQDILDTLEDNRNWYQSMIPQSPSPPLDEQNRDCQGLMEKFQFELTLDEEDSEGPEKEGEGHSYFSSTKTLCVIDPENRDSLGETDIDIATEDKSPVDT
Experimental: Method for FIG. 1. […] The compounds and PDE4B (BPS Biosciences, San Diego, CA) were mixed and pre-incubated at room temperature for 15 minutes. Substrate was added and the reaction was incubated for 7 minutes at room temperature. Data are presented as luminescence units (RLU).
Method for FIG. 2. Phosphodiesterase inhibition assays of PDE4 were performed, using PMX-60056. The PDE-Glo phosphodiesterase assay (Promega, Madison, WI, USA Catalog No. V1361) was performed using 8 ng of PDE4B (BPS Biosciences, San Diego, CA). […] The compounds and PDE4B were mixed and pre-incubated at room temperature for 15 minutes. Substrate was added and the reaction was incubated for 7 minutes at room temperature. Data are presented as luminescence units (RLU).
Phosphodiesterase type 4 (PDE4) is predominant phosphodiesterase expressed in neutrophils, T cells and macrophages. PDE inhibitors show broad spectrum of anti-inflammatory effects in almost all inflammatory cells. PDE4 inhibitors, block the degradative action of PDE4 on cAMP, thereby increasing intracellular levels of cAMP levels which mediate phosphorylation of protein kinases. […] Data are presented as luminescence units (RLU).
The PDE-Glo phosphodiesterase assay was performed according to the Method described for FIG. 2, using 8 ng of PDE4B, 1 μM cAMP substrate PMX-60056. Data are presented as luminescence units (RLU). […]

## N=C(N)NCCCCC(=O)Nc1cc(C(F)(F)F)cc(NC(=O)c2cc(C(=O)Nc3cc(C(F)(F)F)cc(NC(=O)CCCCNC(=N)N)c3O[C@@H]3CCNC3)ncn2)c1O[C@@H]1CCNC1 [PMX-30063, N^4,N^6-bis(2-((R)-pyrrolidin-3-yloxy)-3-((4-carbamoylbutyl)guanidine)-5-(trifluoromethyl)phenyl)pyrimidine-4,6-dicarboxamide tetrahydrochloride salt]
[1]
  IC50: 425 nM
Human PDE4B2
  IC50: ~3 µM and 3 µM

Reference: patent US20230310435A1, “HOST DEFENSE PROTEIN (HDP) MIMETICS FOR PROPHYLAXIS AND/OR TREATMENT OF INFLAMMATORY DISEASES OF THE GASTROINTESTINAL TRACT” (priority 2015, published 2023)
